According to US11999727B2 (Tango Therapeutics, Inc., priority 2020, dated 2024):

Columns and labels:
[1] = test system: HAP1 MTAP-intact cell line; assay: SDMA in-cell western assay, HAP1 MTAP-intact; type: cell-based; settings: Homo sapiens, HAP1, SDMA in-cell western, HAP1 MTAP-intact; read-out: MTAP HAP1 intact IC50
In short: (§1)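 Readout: in-cell western detection of SDMA. Cells: HAP1 expressing endogenous MTAP and an MTAP-null HAP1 counterpart. Output: IC50.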

[2] = target: T1, PRMT5 (Homo sapiens, UniProt O14744); assay: PRMT5 biochemical IC50 assay with no cofactor; settings: PRMT5, no cofactor
T1 construct: purchased Viva (custom protein)
T1 sequence (O14744 whole entry): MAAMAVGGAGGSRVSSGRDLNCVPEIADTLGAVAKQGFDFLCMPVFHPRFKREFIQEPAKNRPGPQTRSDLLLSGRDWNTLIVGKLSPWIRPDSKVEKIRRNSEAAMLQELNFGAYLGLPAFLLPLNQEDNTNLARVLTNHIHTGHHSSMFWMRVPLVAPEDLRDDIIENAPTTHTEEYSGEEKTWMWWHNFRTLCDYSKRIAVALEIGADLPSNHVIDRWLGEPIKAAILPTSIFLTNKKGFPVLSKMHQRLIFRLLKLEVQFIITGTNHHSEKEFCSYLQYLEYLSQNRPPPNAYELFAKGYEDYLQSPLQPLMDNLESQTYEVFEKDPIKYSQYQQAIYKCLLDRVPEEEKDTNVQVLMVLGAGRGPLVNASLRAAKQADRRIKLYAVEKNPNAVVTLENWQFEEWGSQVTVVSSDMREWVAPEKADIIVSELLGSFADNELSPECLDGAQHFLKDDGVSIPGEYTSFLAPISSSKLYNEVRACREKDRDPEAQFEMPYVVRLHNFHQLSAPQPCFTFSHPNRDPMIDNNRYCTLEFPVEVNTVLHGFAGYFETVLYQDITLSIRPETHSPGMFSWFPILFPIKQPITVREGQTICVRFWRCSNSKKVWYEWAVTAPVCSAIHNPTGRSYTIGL
T1 sequence (Q9BQA1 whole entry partner): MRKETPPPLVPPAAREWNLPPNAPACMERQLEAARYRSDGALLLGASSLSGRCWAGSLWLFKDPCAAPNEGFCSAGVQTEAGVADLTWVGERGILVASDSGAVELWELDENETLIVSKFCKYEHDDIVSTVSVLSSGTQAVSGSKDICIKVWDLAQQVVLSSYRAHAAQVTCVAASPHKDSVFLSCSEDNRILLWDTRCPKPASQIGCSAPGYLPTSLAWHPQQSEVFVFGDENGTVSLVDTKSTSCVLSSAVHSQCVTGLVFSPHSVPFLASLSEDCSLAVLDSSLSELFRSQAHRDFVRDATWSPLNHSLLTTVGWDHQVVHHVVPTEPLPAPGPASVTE
Description: Table 1 indicates IC50 values (μM) against PRMT5 for exemplary compounds in the presence of SAM as cofactor, with no cofactor, and with MTA as cofactor, respectively (columns 4-6). […] Ki values can be calculated from the IC50 values as described in the Examples section. As detailed in the Examples section, for the assay performed in the presence of SAM, IC50=Ki×1.5 (Ki=IC50/1.5).

[3] = target: T1, PRMT5; assay: PRMT5 biochemical IC50 assay with MTA as cofactor; settings: PRMT5, MTA as cofactor; read-out: MTA IC50
[4] = target: T1, PRMT5; assay: PRMT5 biochemical IC50 assay with SAM as cofactor; settings: PRMT5, SAM as cofactor; read-out: SAM IC50
[5] = test system: HAP1 MTAP-deleted cell line; assay: Viability assay, MTAP-deleted cell line; type: cell-based; settings: Homo sapiens, read-out: HAP1 MTAP deleted viability
Description: Table 1 additionally indicates IC50 values in a viability assay for the MTAP-deleted cell line (column 10), indicating the effect of treatment with compound on cell survival.

[6] = test system: HAP1 MTAP-deleted cell line; assay: SDMA in-cell western assay, HAP1 MTAP-deleted; type: cell-based; settings: for IC50: Homo sapiens, HAP1, SDMA in-cell western, HAP1 MTAP-deleted; for MTAP intact/deleted ratio: IC50 ratio HAP1 MTAP-intact / HAP1 MTAP-deleted, SDMA in-cell western
In short: as §1

[7] = HAP1, viability assay, HAP1 MTAP-deleted
[8] = read-out: HAP1 MTAP deleted IC50
[9] = HAP1, viability assay, MTAP-deleted cell line
[10] = read-out: HAP 1 MTAP deleted IC50
[11] = HAP1, viability IC50, MTAP-deleted cell line
[12] = read-out: No Cofactor/ rel IC50
[13] = HAP1, viability, HAP1 MTAP-deleted cell line

IC50 [1] | IC50 ([2]; read-out: No Cofactor/rel IC50) | IC50 [3] | IC50 [4] | IC50 [6, 8] | IC50 [6, 10] | IC50 [2, 12] | Compound | IC50 [5, 7] | MTAP intact/deleted ratio [6] | IC50 [5, 9] | IC50 [5, 11] | IC50 [5, 13]
> 1000 nM | > 500 nM | > 500 nM | > 500 nM |  | > 1000 nM |  | COc1ncc(NC(=O)C(=O)N2C[C@@H](C)CC[C@@H]2c2cscn2)cc1C(N)=O (single isomer, unassigned) [Compound 1033] |  | B (an IC50 ratio greater than or equal to 3 fold but lower than 10 fold) | > 10000 nM |  | 
> 1000 nM | > 500 nM | > 500 nM | > 500 nM |  | > 1000 nM |  | CCc1cc(NC(=O)C(=O)N2C[C@H](C)CC[C@H]2c2ccc(NC(C)=O)nc2)cnc1N (single isomer, unassigned) [Compound 921] |  | B (an IC50 ratio greater than or equal to 3 fold but lower than 10 fold) | > 10000 nM |  | 
100 to 1000 nM |  | < 50 nM | 50 to 500 nM |  | < 100 nM | 50 to 500 nM | CCc1cc(NC(=O)C(=O)N2C[C@@H](C)CC[C@@H]2c2ccc(N3CCN(C)CC3)c(C)c2)cnc1N [Compound 1390, N-(6-Amino-5-ethyl-3-pyridyl)-2-[(2R,5S)-5-methyl-2-[3-methyl-4-(4-methylpiperazin-1-yl)phenyl]-1-piperidyl]-2-oxo-acetamide] |  | A (an IC50 ratio greater than or equal to 10 fold) |  |  | < 1000 nM
> 1000 nM | < 50 nM | < 50 nM | 50 to 500 nM | < 100 nM |  |  | COc1ncc(NC(=O)C(=O)N2C[C@@H](C)CC[C@@H]2c2ccc(N)nc2)cc1C(N)=O (single isomer, unassigned) [Compound 460] |  | A (an IC50 ratio greater than or equal to 10 fold) | < 1000 nM |  | 
> 1000 nM | > 500 nM | > 500 nM | > 500 nM |  | > 1000 nM |  | CCc1cc(NC(=O)C(=O)N2C[C@@H](C)CC[C@@H]2c2ccn(-c3cc[nH]n3)n2)cnc1N (single isomer, unassigned) [Compound 913] |  | C (an IC50 ratio of less than 3 fold) | > 10000 nM |  | 
100 to 1000 nM | 50 to 500 nM | < 50 nM | 50 to 500 nM | < 100 nM |  |  | Cc1cc(NC(=O)C(=O)N2C[C@H](C)CC[C@H]2c2cc3cn[nH]c3s2)cnc1N (racemic) [Compound 815, N-(6-amino-5-methylpyridin-3-yl)-2-(5-methyl-2-(1H-thieno[2,3-c]pyrazol-5-yl)piperidin-1-yl)-2-oxoacetamide] | < 1000 nM | A* (an IC50 ratio greater than or equal to 10 fold) |  |  | 
> 1000 nM | > 500 nM | 50 to 500 nM | > 500 nM | > 1000 nM |  |  | Cc1c(NC(=O)C(=O)N2C[C@H](C)CC[C@H]2c2ccccc2)cnc(N)c1C (single isomer, unassigned) [Compound 367] |  | C (an IC50 ratio of less than 3 fold) | > 10000 nM |  | 
> 1000 nM | > 500 nM | > 500 nM | > 500 nM |  | > 1000 nM |  | C[C@@H]1CC[C@@H](c2cc[nH]n2)N(C(=O)C(=O)Nc2cncc(C(N)=O)c2)C1 (single isomer, unassigned) [Compound 1007] |  | B (an IC50 ratio greater than or equal to 3 fold but lower than 10 fold) | > 10000 nM |  | 

Second part, the compound before the results:

Compound | IC50 [1] | IC50 ([2]; read-out: No Cofactor/rel IC50) | IC50 [3] | IC50 [4] | IC50 [6, 8] | IC50 [6, 10] | IC50 [2, 12] | IC50 [5, 7] | MTAP intact/deleted ratio [6] | IC50 [5, 9] | IC50 [5, 11] | IC50 [5, 13]
CNC(=O)c1ccc([C@H]2CC[C@H](C)CN2C(=O)C(=O)Nc2cncc(C(N)=O)c2)s1 (single isomer, unassigned) [Compound 839] | > 1000 nM | > 500 nM | > 500 nM | > 500 nM | > 1000 nM |  |  | > 10000 nM | B (an IC50 ratio greater than or equal to 3 fold but lower than 10 fold) |  |  | 
C[C@@H]1CC[C@@H](c2ccc(C(N)=O)s2)N(C(=O)C(=O)Nc2cncc(C(N)=O)c2)C1 (single isomer, unassigned) [Compound 792] | > 1000 nM | < 50 nM | < 50 nM | 50 to 500 nM | < 100 nM |  |  | 1000 to 10000 nM | A (an IC50 ratio greater than or equal to 10 fold) |  |  | 
C[C@@H]1CC[C@@H](c2cc(F)c(O)c(F)c2)N(C(=O)C(=O)Nc2cncc(C(N)=O)c2)C1 (racemic) [Compound 560, rac-5-[[2-[(2R,5S)-2-(3,5-difluoro-4-hydroxy-phenyl)-5-methyl-1-piperidyl]-2-oxo-acetyl]amino]pyridine-3-carboxamide] | > 1000 nM | 50 to 500 nM | 50 to 500 nM | 50 to 500 nM |  | 100 to 1000 nM |  |  | A (an IC50 ratio greater than or equal to 10 fold) |  | > 10000 nM | 
Cc1cc(NC(=O)C(=O)N2C[C@H](C)CC[C@H]2[C@H]2CC[C@@H](O)CC2)cnc1N (single isomer, unassigned) [Compound 436] | > 1000 nM | 50 to 500 nM | 50 to 500 nM | 50 to 500 nM | 100 to 1000 nM |  |  |  | A (an IC50 ratio greater than or equal to 10 fold) | > 10000 nM |  | 
C[C@@H]1CC[C@@H](c2cc3cn[nH]c3cc2F)N(C(=O)C(=O)Nc2cncc(C(N)=O)c2)C1 (single isomer, unassigned) [Compound 571] | > 1000 nM | > 500 nM | > 500 nM | > 500 nM |  | > 1000 nM |  |  | C (an IC50 ratio of less than 3 fold) |  | > 10000 nM | 
COc1ncc(NC(=O)C(=O)N2C[C@H](C)CC[C@H]2c2ccc(-c3cncs3)cc2)cc1C(N)=O (single isomer, unassigned) [Compound 830, 2-methoxy-5-(2-(5-methyl-2-(4-(thiazol-5-yl)phenyl)piperidin-1-yl)-2-oxoacetamido)nicotinamide] | > 1000 nM | 50 to 500 nM | < 50 nM | 50 to 500 nM | < 100 nM |  |  | < 1000 nM | A (an IC50 ratio greater than or equal to 10 fold) |  |  | 
COc1ncc(NC(=O)C(=O)N2C[C@H](C)CC[C@H]2c2ccc(NC(C)=O)cc2)cc1C(N)=O (single isomer, unassigned) [Compound 760] | > 1000 nM | < 50 nM | < 50 nM | 50 to 500 nM | < 100 nM |  |  | < 1000 nM | A (an IC50 ratio greater than or equal to 10 fold) |  |  | 
COc1ncc(NC(=O)C(=O)N2C[C@@H](C)CC[C@@H]2c2ccc3sc([C@H]4CCN(C)C4)nc3c2)cc1C(N)=O (racemic) [Compound 1260, 2-methoxy-5-[[2-oxo-2-[rac-(2R,5S)-5-methyl-2-[2-[rac-(3S)-1-methylpyrrolidin-3-yl]-1,3-benzothiazol-5-yl]-1-piperidyl]acetyl]amino]pyridine-3-carboxamide] | < 100 nM |  | < 50 nM | < 50 nM |  | < 100 nM | < 50 nM |  | A (an IC50 ratio greater than or equal to 10 fold) |  |  | < 1000 nM
C[C@@H]1CC[C@@H](c2ccc3c(c2)C[C@@H](C)O3)N(C(=O)C(=O)Nc2cncc(C(N)=O)c2)C1 (single isomer, unassigned) [Compound 329] | > 1000 nM | 50 to 500 nM | < 50 nM | 50 to 500 nM | < 100 nM |  |  |  | A (an IC50 ratio greater than or equal to 10 fold) | 1000 to 10000 nM |  | 
CCc1cc(NC(=O)C(=O)N2[C@@H](c3ccc4sc(C5CCN(C)CC5)nc4c3)CCC[C@@H]2C)cnc1N [Compound 1395] | < 100 nM |  | < 50 nM | 50 to 500 nM |  | < 100 nM | < 50 nM |  | A (an IC50 ratio greater than or equal to 10 fold) |  |  | < 1000 nM
C[C@@H]1CC[C@@H](c2ccc3sc(CCN(C)C)nc3c2)N(C(=O)C(=O)Nc2cncc(C(N)=O)c2)C1 (racemic) [Compound 1355, 5-(2-(2-(2-(2-(dimethylamino)ethyl)benzo[d]thiazol-5-yl)-5-methylpiperidin-1-yl)-2-oxoacetamido)nicotinamide] | 100 to 1000 nM |  | < 50 nM | 50 to 500 nM |  | < 100 nM | 50 to 500 nM |  | A (an IC50 ratio greater than or equal to 10 fold) |  |  | < 1000 nM
